target: T1, human neutrophil elastase (HNE) (Homo sapiens, UniProt P08246); assay: HNE induced lung haemorrhage in the rat; format: in vivo; conditions: male Sprague Dawley rats, compound dosed locally to the lung (i.t. or i.n.) before HNE, blood in BALF one hour post HNE challenge
T1 sequence (P08246 30-267): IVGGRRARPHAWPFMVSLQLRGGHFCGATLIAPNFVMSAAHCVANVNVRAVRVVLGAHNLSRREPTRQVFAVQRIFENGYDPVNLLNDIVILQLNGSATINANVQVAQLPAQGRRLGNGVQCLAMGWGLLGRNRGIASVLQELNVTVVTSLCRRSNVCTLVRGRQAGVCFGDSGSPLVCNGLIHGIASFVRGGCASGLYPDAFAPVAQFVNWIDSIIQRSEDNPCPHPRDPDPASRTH
From the text: HNE Induced Lung Haemorrhage in the Rat
Instillation of human neutrophil elastase (HNE) into rat lung causes acute lung damage. The extent of this injury can be assessed by measuring lung haemorrhage. Male Sprague Dawley rats (175-220 g) were obtained from Harlan UK Ltd., full barrier-bred and certified free from specified micro-organisms on receipt. Animals were weighed and randomly assigned to treatment groups (7-12 animals per group).
The vehicle used was 1% DMSO/Saline. Inhibitors were dissolved in 1% DMSO before the addition of 0.9% saline.
Animals in each study used to determine the efficacy of the elastase inhibitors delivered locally to the lung by a variety of routes. Rats were anaesthetised with the inhaled anaesthetic isoflurane (4%) when the dose was given from 30 minutes to 6 h prior to human neutrophil elastase ([…]) administration or terminally anaesthetised with hypnorm:hypnovel:water (1.5:1:2 at 2.7 ml/kg) when the predose was given at less than 30 minutes prior to HNE administration and dosed either intratracheally (i.t.) by transoral administration using a Penn Century microsprayer or intranasally (i.n.) by dropping the fluid on to the nares. Animals either received vehicle or compound at a dose volume of 0.5 ml/kg.
Animals that had been allowed to recover after dosing were terminally anaesthetised with hypnorm:hypnovel:water (1.5:1:2 at 2.7 ml/kg). Once sufficiently anaesthetised, HNE (600 units/ml) or sterile saline was administered by transoral tracheal instillation at a volume of 100 μl using a Penn Century microsprayer. Animals were kept warm in a temperature controlled box and given top up doses of anaesthetic as required to ensure continuous anaesthesia until termination.
Animals were sacrificed (0.5 ml to 1 ml sodium pentobarbitone) one hour post HNE challenge. The trachea was exposed and a small incision made between two tracheal rings allowing a cannula (10 gauge, O.D. 2-10 mm, Portex Ltd.) to be inserted approximately 2 cm into the trachea towards the lung. This was secured into place with a cotton ligature. The lungs were then lavaged (BAL) three times with fresh 4 ml aliquots of heparinised (10 units/ml) phosphate buffered saline (PBS). The resultant BALF was kept on ice until it was centrifuged.
The BALF was centrifuged at 1000 r.p.m. for 10 minutes in a centrifuge cooled to between 4 and 10° C. The supernatant was discarded and the cell pellet resuspended in 1 ml 0.1% CETAB/PBS to lyse the cells. Cell lysates were frozen until spectrophotometric analysis for blood content could be made. Standards were prepared by making solutions of whole rat blood in 0.1% CETAB/PBS.
Once defrosted 100 μl of each lysed cell suspension was placed into a separate well of a 96 well flat bottomed plate. All samples were tested in duplicate and 100 μl 0.1% CETAB/PBS was included on the plate as a blank. The OD of the contents of each well was measured at 415 nm using a spectramax 250 (Molecular devices).
A standard curve was constructed by measuring the OD (at 415 nm) of different concentrations of blood in 0.1% CETAB/PBS (30, 10, 7, 3, 1, 0.3, 0.1 μl/ml).
The amount of blood in each experimental sample was calculated by comparison to the standard curve. Data were then analysed as below:
1) The mean OD for duplicates was calculated
2) The value for the blank was subtracted from the value for all other samples
3) Data were assessed to evaluate the normality of distribution.

| Structure (SMILES) | reducing the quantity of blood haemorrhaged relative to control |
| --- | --- |
| CN(CCCN1CC2=C(C1=O)[C@@H](c1ccc(C#N)cc1)NC(=O)N2c1cccc(C(F)(F)F)c1)CCCN1CC2=C(C1=O)[C@@H](c1ccc(C#N)cc1)NC(=O)N2c1cccc(C(F)(F)F)c1 [Example 17] | effective in reducing the quantity of blood haemorrhaged |
| N#Cc1ccc([C@H]2NC(=O)N(c3cccc(C(F)(F)F)c3)C3=C2C(=O)N(CCCNCCCN2CC4=C(C2=O)[C@@H](c2ccc(C#N)cc2)NC(=O)N4c2cccc(C(F)(F)F)c2)C3)cc1.O=CO [Example 18] | effective in reducing the quantity of blood haemorrhaged |
| CCN1CC2=C(C1=O)[C@@H](c1ccc(C#N)cc1)N(CC(=O)NCCNC(=N)NCCNC(=O)CN1C(=O)N(c3cccc(C(F)(F)F)c3)C3=C(C(=O)N(CC)C3)[C@H]1c1ccc(C#N)cc1)C(=O)N2c1cccc(C(F)(F)F)c1 [Example 30] | effective in reducing the quantity of blood haemorrhaged |
| C[N+](C)(CCCN1CC2=C(C1=O)[C@@H](c1ccc(C#N)cc1)NC(=O)N2c1cccc(C(F)(F)F)c1)CCCN1CC2=C(C1=O)[C@@H](c1ccc(C#N)cc1)NC(=O)N2c1cccc(C(F)(F)F)c1.[I-] [Example 32] | effective in reducing the quantity of blood haemorrhaged |
| C[N+](C)(CCCN1CC2=C(C1=O)[C@@H](c1ccc(C#N)cc1)N(CC(=O)O)C(=O)N2c1cccc(C(F)(F)F)c1)CCCN1CC2=C(C1=O)[C@@H](c1ccc(C#N)cc1)N(CC(=O)O)C(=O)N2c1cccc(C(F)(F)F)c1.O=C([O-])C(F)(F)F [Example 41] | effective in reducing the quantity of blood haemorrhaged |
| N#Cc1ccc([C@H]2NC(=O)N(c3cccc(C(F)(F)F)c3)C3=C2C(=O)N(CCN2CCN(CCN4CC5=C(C4=O)[C@@H](c4ccc(C#N)cc4)NC(=O)N5c4cccc(C(F)(F)F)c4)C2=N)C3)cc1 [Example 43] | effective in reducing the quantity of blood haemorrhaged |
| C[N+](CCCN1CC2=C(C1=O)[C@@H](c1ccc(C#N)cc1)NC(=O)N2c1cccc(C(F)(F)F)c1)(CCCN1CC2=C(C1=O)[C@@H](c1ccc(C#N)cc1)NC(=O)N2c1cccc(C(F)(F)F)c1)CC(=O)[O-] [Example 49] | effective in reducing the quantity of blood haemorrhaged |
| C[N+](C)(CCCN1CC2=C(C1=O)[C@@H](c1ccc(C#N)cc1)NC(=O)N2c1cccc(C(F)(F)F)c1)CCCN1CC2=C(C1=O)[C@@H](c1ccc(C#N)cc1)NC(=O)N2c1cccc(C(F)(F)F)c1.O=C[O-] [Example 59] | effective in reducing the quantity of blood haemorrhaged |
| C[N+](C)(CCCCN1CC2=C(C1=O)[C@@H](c1ccc(C#N)cc1)NC(=O)N2c1cccc(C(F)(F)F)c1)CCCOc1ccccc1.[Br-] [Example 61] | effective in reducing the quantity of blood haemorrhaged |
| C[N+](CCCCN1CC2=C(C1=O)[C@@H](c1ccc(C#N)cc1)NC(=O)N2c1cccc(C(F)(F)F)c1)(CCCOc1ccccc1)CCCOc1ccccc1.O=C[O-] [Example 64] | effective in reducing the quantity of blood haemorrhaged |

same assay, conditions: rat, 30 mg/kg it, 1 hour prior to HNE; statistically significant

| Structure (SMILES) | reduction in haemorrhage relative to control [%] |
| --- | --- |
| C[N+](C)(CCCN1CC2=C(C1=O)[C@@H](c1ccc(C#N)cc1)NC(=O)N2c1cccc(C(F)(F)F)c1)CCCN1CC2=C(C1=O)[C@@H](c1ccc(C#N)cc1)NC(=O)N2c1cccc(C(F)(F)F)c1.[I-] [Example 32] | 67 |

target: T2, human leukocyte elastase (HNE) (Homo sapiens, UniProt P08246); assay: HNE inhibitory activity (fluorescent peptide substrate / fluorescently labelled elastin assays); format: biochemical; conditions: which of the two substrate assays is not stated
T2 construct: purchased Sigma E8140
T2 sequence (P08246 30-247 limits assumed): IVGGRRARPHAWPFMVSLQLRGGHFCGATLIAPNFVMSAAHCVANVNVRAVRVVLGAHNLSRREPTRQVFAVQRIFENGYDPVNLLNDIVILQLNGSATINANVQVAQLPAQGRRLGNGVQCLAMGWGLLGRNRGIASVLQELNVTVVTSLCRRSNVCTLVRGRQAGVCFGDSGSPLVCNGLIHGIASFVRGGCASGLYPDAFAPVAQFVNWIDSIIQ
Protocol: Compounds of the invention were tested for their HNE inhibitory activity.
Fluorescent Peptide Substrate
Assays were performed in 96-well plates at a total assay volume of 100 μl. The final concentration of the enzyme (human leukocyte elastase, Sigma E8140) was 0.00036 units/well. A peptide substrate (MeO-Suc-Ala-Ala-Pro-ValAMC, Calbiochem #324745) was used, at the final concentration of 100 μM. The final concentration of DMSO was 1% in the assay buffer (0.05M Tris.HCl, pH 7.5, 0.1M NaCl; 0.1M CaCl2; 0.0005% brij-35).
The enzymatic reaction was started by adding the enzyme. The enzymatic reaction was performed at RT and after 30 mins stopped by adding 50 μl soybean trypsin inhibitor (Sigma T-9003) at a final concentration of 50 μg/well. Fluorescence was read on the FLEXstation (Molecular Devices) using 380 nm excitation and 460 nm emission filters. […] The results are means of two independent experiments, each performed in duplicate.
Using Fluorescently Labelled Elastin
Assays were performed in 96-well plate at a total assay volume of 100 μl. The final concentration of the enzyme (human leukocyte elastase, Sigma E8140) was 0.002 units/well. […]
The enzymatic reaction was started by adding the enzyme. The enzymatic reaction was performed at RT and read after 120 minutes. Fluorescence was read on the FLEXstation (Molecular Devices) using 485 nm excitation and 530 nm emission filters. […]

| IC50 [nM] | Structure (SMILES) |
| --- | --- |
| 50 to 500 | CN(CCCN1CC2=C(C1=O)[C@@H](c1ccc(I)cc1)NC(=O)N2c1cccc(C(F)(F)F)c1)CCCN1CC2=C(C1=O)[C@@H](c1ccc(I)cc1)NC(=O)N2c1cccc(C(F)(F)F)c1 [Example 23] |
